Patent publication US20250346600A1, “TRICYCLIC DERIVATIVES AND RELATED USES” (MOMA Therapeutics, Inc., priority 2023, published 2025)

Tests used:
[1] = biological target: T1, Full length WRN protein (aa 2-1432) (Homo sapiens (Human), UniProt Q14191); test: WRN ATPase ADP-Glo biochemical assay, Assay Format A (10 μM ATP); conditions: 0.25 nM WRN, 100 nM C6.18 ssDNA, 30 min preincubation, read-out: ATPase ADPGlo AC50 (uM)- Assay Format A
Method in brief: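 Sf9-expressed FLAG-AVI-TEV-tagged WRN (0.5 nM) preincubated 30 min with compound (11-point 3-fold dilution). Reaction started with 200 nM C6.18 39-mer ssDNA and 20 μM ATP (addition concentrations), run 30 min at room temperature. ADP measured by ADP-Glo luminescence; IC50 from four-parameter fit, geometric mean of ≥2 runs.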

[2] = biological target: T1, Full length WRN protein (aa 2-1432); test: WRN ATPase ADP-Glo biochemical assay, Assay Format B (100 μM ATP); conditions: 0.25 nM WRN, 100 nM C6.18 ssDNA, 60 min preincubation, read-out: ATPase ADPGlo AC50 (uM)- Assay Format B
HCT116 cells = test: HCT116 (MSI) 7 day viability, CellTiter Glo; assay type: cell-based; conditions: Homo sapiens, HCT-116, 168 h, 7 days, read-out: HCT116 (MSI) Viability 7 Day Abs AC50
Method in brief: (§1)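 Seven-day viability is assessed with CellTiter Glo after compounds, diluted in ten 3-fold steps in DMSO, are exposed to HCT116 (50 cells/well) or HT29 (500 cells/well). Reported IC50 is the geometric mean of at least two independent runs.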

HT29 cells = test: HT29 (MSS) 7 day viability, CellTiter Glo; assay type: cell-based; conditions: Homo sapiens, HT-29, 168 h, 7 days, read-out: HT29 (MSS) Viability 7 Day CTGAbs AC50
Method in brief: as §1

T1 sequence (Q14191 2-1432): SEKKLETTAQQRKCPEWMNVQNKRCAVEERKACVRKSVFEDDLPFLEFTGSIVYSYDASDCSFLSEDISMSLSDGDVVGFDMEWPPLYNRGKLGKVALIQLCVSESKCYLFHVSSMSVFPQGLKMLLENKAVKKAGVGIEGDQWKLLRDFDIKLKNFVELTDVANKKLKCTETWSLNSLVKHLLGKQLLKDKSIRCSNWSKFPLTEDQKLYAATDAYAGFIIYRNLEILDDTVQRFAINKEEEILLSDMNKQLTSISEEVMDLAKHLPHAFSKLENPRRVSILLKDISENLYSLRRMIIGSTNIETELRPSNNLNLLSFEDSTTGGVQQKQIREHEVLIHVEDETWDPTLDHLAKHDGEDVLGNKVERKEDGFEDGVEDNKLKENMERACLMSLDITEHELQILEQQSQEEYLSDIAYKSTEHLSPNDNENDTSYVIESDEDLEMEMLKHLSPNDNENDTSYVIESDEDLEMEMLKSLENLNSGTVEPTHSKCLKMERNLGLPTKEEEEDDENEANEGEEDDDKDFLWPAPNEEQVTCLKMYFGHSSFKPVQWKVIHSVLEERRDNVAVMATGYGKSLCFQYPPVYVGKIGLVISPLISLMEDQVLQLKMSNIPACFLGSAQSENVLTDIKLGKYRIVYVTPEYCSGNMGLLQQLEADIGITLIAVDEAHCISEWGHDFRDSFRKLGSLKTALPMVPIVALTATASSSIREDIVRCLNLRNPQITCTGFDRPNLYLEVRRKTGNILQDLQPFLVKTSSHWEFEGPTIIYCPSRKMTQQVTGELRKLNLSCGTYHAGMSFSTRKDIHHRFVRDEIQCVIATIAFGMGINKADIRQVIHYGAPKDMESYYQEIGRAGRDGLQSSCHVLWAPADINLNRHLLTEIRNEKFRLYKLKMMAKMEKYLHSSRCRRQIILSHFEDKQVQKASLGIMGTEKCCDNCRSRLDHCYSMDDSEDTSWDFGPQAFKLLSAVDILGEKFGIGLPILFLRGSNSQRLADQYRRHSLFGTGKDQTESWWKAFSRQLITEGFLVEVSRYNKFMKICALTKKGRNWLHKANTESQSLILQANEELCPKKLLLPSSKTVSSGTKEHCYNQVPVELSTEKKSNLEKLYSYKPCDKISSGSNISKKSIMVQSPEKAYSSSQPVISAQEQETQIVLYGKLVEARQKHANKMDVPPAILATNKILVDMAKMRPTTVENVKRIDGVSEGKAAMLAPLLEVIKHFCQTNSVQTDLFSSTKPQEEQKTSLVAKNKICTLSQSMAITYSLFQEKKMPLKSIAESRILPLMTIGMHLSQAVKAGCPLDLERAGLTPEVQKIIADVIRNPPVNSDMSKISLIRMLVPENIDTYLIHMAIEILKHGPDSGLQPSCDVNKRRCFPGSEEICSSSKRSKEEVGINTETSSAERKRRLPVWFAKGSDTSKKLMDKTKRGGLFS

SMILES | AC50 [1] [µM] | AC50 [2] [µM] | AC50 (HCT116 cells) [nM] | AC50 (HT29 cells) [nM]
CC(C)c1ccc(-n2nc3c4c2CCN(C(=O)c2ccc(Br)c5[nH]cnc25)C4CN(C(=O)/C=C/CN(C)C)CC3)cc1 (centres unmarked) [Compound 15, 1-(5-(7-bromo-1H-benzo[d]imidazole-4-carbonyl)-2-(4-isopropylphenyl)-2,3,4,5,5a,6,8,9-octahydro-7H-1,2,5,7-tetraazabenzo[cd]azulen-7-yl)-4-(dimethylamino)but-2-en-1-one] | 0.015 to 0.055 | > 0.055 | 250 to 500 | > 3000
C=C(F)C(=O)N1CCc2nn(-c3ccc(C(C)C)cc3)c3c2C(C1)N(C(=O)c1ccc(Br)c2[nH]cnc12)CC3 (centres unmarked) [Compound 17, 1-(5-(7-bromo-1H-benzo[d]imidazole-4-carbonyl)-2-(4-isopropylphenyl)-2,3,4,5,5a,6,8,9-octahydro-7H-1,2,5,7-tetraazabenzo[cd]azulen-7-yl)-2-fluoroprop-2-en-1-one] | 0.015 to 0.055 | > 0.055 | > 1000 | > 3000
C=CC(=O)N1CCc2nn(-c3ccc(C4CC4)cc3)c3c2C(C1)N(C(=O)c1ccc(C#N)c2[nH]cnc12)CC3 (centres unmarked) [Compound 18, 4-(7-acryloyl-2-(4-cyclopropylphenyl)-3,4,5,5a,6,7,8,9-octahydro-2H-1,2,5,7-tetraazabenzo[cd]azulene-5-carbonyl)-1H-benzo[d]imidazole-7-carbonitrile] | 0.0015 to 0.005 | 0.015 to 0.055 | 1 to 100 | > 3000
C=CC(=O)N1CCc2nn(-c3ccc(C45CC(C4)C5)cc3)c3c2C(C1)N(C(=O)c1ccc(C(F)(F)F)c2[nH]ncc12)CC3 (centres unmarked) [Compound 19, 1-(2-(4-(bicyclo[1.1.1]pentan-1-yl)phenyl)-5-(7-(trifluoromethyl)-1H-indazole-4-carbonyl)-2,3,4,5,5a,6,8,9-octahydro-7H-1,2,5,7-tetraazabenzo[cd]azulen-7-yl)prop-2-en-1-one] | 0.0015 to 0.005 | 0.015 to 0.055 | 1 to 100 | > 3000
C=CC(=O)N1CCc2nn(-c3ccc(C(C)C)cc3O)c3c2C(C1)N(C(=O)c1ccc(Br)c2[nH]cnc12)CC3 (centres unmarked) [Compound 20, 1-(5-(7-bromo-1H-benzo[d]imidazole-4-carbonyl)-2-(2-hydroxy-4-isopropylphenyl)-2,3,4,5,5a,6,8,9-octahydro-7H-1,2,5,7-tetraazabenzo[cd]azulen-7-yl)prop-2-en-1-one] | < 0.0015 | 0.005 to 0.015 | 1 to 100 | > 3000
C=CC(=O)N1CCc2nn(-c3ccc(C(C)C)cc3O)c3c2C(C1)N(C(=O)c1cnc(C(F)(F)F)c(O)c1)CC3 (centres unmarked) [Compound 21, 1-(2-(2-hydroxy-4-isopropylphenyl)-5-(5-hydroxy-6-(trifluoromethyl)nicotinoyl)-2,3,4,5,5a,6,8,9-octahydro-7H-1,2,5,7-tetraazabenzo[cd]azulen-7-yl)prop-2-en-1-one] | < 0.0015 | 0.005 to 0.015 | 1 to 100 | > 3000
C=CC(=O)N1CCc2nn(-c3ccc(C(C)C)cc3O)c3c2C(C1)N(C(=O)c1cnc(Br)c2[nH]cnc12)CC3 (centres unmarked) [Compound 22, 1-(5-(4-bromo-3H-imidazo[4,5-c]pyridine-7-carbonyl)-2-(2-hydroxy-4-isopropylphenyl)-2,3,4,5,5a,6,8,9-octahydro-7H-1,2,5,7-tetraazabenzo[cd]azulen-7-yl)prop-2-en-1-one] | 0.0015 to 0.005 | 0.015 to 0.055 | 250 to 500 | > 3000
C=CC(=O)N1CCc2nn(-c3ccc(C4CCC4)cc3O)c3c2C(C1)N(C(=O)c1ccc(Br)c2[nH]cnc12)CC3 (centres unmarked) [Compound 23, 1-(5-(7-bromo-1H-benzo[d]imidazole-4-carbonyl)-2-(4-cyclobutyl-2-hydroxyphenyl)-2,3,4,5,5a,6,8,9-octahydro-7H-1,2,5,7-tetraazabenzo[cd]azulen-7-yl)prop-2-en-1-one] | < 0.0015 | 0.0015 to 0.005 | 1 to 100 | > 3000
